Numbers after ± are expanded uncertainties.
Experiment: refractive index (Na D-line) (dimensionless); xn = mol fraction of the nth substance listed
Conditions: 101 kPa, Liquid, Standard Abbe refractometry

C=CC(C)(O)CCC=C(C)C (stereo not drawn) [3,7-dimethyl-1,6-octadien-3-ol] + CCO
refractive index
Conditions	283.15 K	298.15 K	313.15 K	328.15 K
x1 = 0.0471	–	–	–	1.3611 ± 0.00032
x1 = 0.0493	–	–	1.3678 ± 0.00032	–
x1 = 0.0506	1.38013 ± 0.00032	1.37416 ± 0.00032	–	–
x1 = 0.1008	1.39241 ± 0.00032	1.38626 ± 0.00032	1.37996 ± 0.00032	1.37358 ± 0.00032
x1 = 0.1969	1.41091 ± 0.00032	1.40451 ± 0.00033	1.39788 ± 0.00033	1.39102 ± 0.00033
x1 = 0.2884	1.42392 ± 0.00033	–	–	–
x1 = 0.2895	–	1.4175 ± 0.00034	1.41061 ± 0.00034	1.4036 ± 0.00034
x1 = 0.388	1.43469 ± 0.00035	1.42801 ± 0.00035	–	–
x1 = 0.3957	–	–	1.42171 ± 0.00035	1.41452 ± 0.00035
x1 = 0.4803	1.44248 ± 0.00037	–	–	–
x1 = 0.4834	–	1.4359 ± 0.00037	1.42883 ± 0.00037	1.42158 ± 0.00037
x1 = 0.56	1.44799 ± 0.00038	–	–	–
x1 = 0.593	–	1.44306 ± 0.00039	1.43594 ± 0.00039	1.42859 ± 0.00039
x1 = 0.6838	1.45474 ± 0.00041	1.44779 ± 0.00041	1.44061 ± 0.00041	1.43327 ± 0.00041
x1 = 0.7832	1.45921 ± 0.00043	–	–	–
x1 = 0.8438	–	1.45451 ± 0.00045	1.44732 ± 0.00045	1.43989 ± 0.00045
x1 = 0.8941	1.46319 ± 0.00046	1.45612 ± 0.00046	1.4489 ± 0.00046	1.4415 ± 0.00046
x1 = 0.9286	1.46443 ± 0.00047	–	1.45004 ± 0.00047	1.44266 ± 0.00047
x1 = 0.9337	–	1.45748 ± 0.00047	–	–
x1 = 1	1.4666 ± 0.00049	1.45946 ± 0.00049	1.45215 ± 0.00049	1.44473 ± 0.00049
